# Entries after “also recorded” stand apart in the source; their conditions may differ.
# Experiments:
# Format in all cases: cell-based, human
# DU-145 [1] = experiment: Cell growth inhibition assay (MTT, day 0 subtracted); settings: Homo sapiens, 72 h, read-out: In vitro Growth Inhibitory Concentration (GI50)
# Experimental: (§1) Various cancer cells were used to screen anticancer activity of newly synthesized compounds. Lung (A549 and NCI-H460), colon (HCT-15 and HT-29), prostate (DU-145) cancer cells maintained in RPMI-1640 media while normal lung fibroblasts cell line (HFL-1) were maintained in F-12 k medium supplemented with 10% fetal bovine serum (FBS) with 1% antibiotic-antimycotic solution (Sigma). Cells were maintained in 5% CO2 with 98% relative humidity at 37 °C in incubator. When 80-90% of confluency is reached, they were sub-cultured using 0.25% trypsin/1 mM EDTA solution for further passage. The compounds in this series were dissolved in DMSO (1 %) to prepare the stock solution of 10 mM. Further dilutions were made accordingly with respective media to obtain the required concentrations.
# (§2) Briefly, the cells were seeded on to a 96-well plate in 100 µl of medium. Following 24 h MTT reagent was added in few wells and day 0 absorbance was analyzed, and then cells were treated with compounds and incubated for an additional 72 h. After the treatment, 100 µl of MTT (0.5 mg/ml) was added and incubated at 37 °C for 4 h. Then MTT reagent was suctioned, the insoluble formazan crystals were dissolved in DMSO and formazan product formed is measured at 570 nm wavelength. The day 0 absorbance was subtracted from the 72 h incubated plates and data were plotted as a percentage of untreated control (Dai et al., 2011).
# [2] = tested on: HFL-1 normal lung fibroblasts; experiment: as above; settings: Homo sapiens, HFL1, 72 h, read-out: In vitro Growth Inhibitory Concentration (GI50)
# Experimental: as §1, §2
# NCI-H460 = experiment: as above; settings: Homo sapiens, 72 h, read-out: In vitro Growth Inhibitory Concentration (GI50)
# Experimental: as §1, §2
# A549 [3] = experiment: as above; settings: Homo sapiens, 72 h, read-out: In vitro Growth Inhibitory Concentration (GI50)
# Experimental: as §1, §2
# HT-29 [4] = experiment: as above; settings: Homo sapiens, 72 h, read-out: In vitro Growth Inhibitory Concentration (GI50)
# Experimental: as §1, §2
# HCT-15 = experiment: as above; settings: Homo sapiens, 72 h, read-out: In vitro Growth Inhibitory Concentration (GI50)
# Experimental: as §1, §2
# DU-145 [5] = experiment: MTT cytotoxicity assay; settings: Homo sapiens, DU-145 prostate cancer, 72 h, read-out: In vitro Inhibitory Concentration (IC50)
# Experimental: as §1
# (§3) MTT assay measures the reduction of MTT (3-(4,5-dimethylthiazol- 2-yl)-2,5-diphenyl tetrazolium bromide) by mitochondrial succinate dehydrogenase enzyme to insoluble formazan crystals. Since reduction of MTT occurs only in metabolically active cells, the level of activity is the measure of the viability of the cells.(Pordeli et al., 2017). Briefly, cells were plated in 96-well plates at a density of 3,000 to 6,000 cells per well in 100 µl of complete medium and allowed to grow overnight. Then the cells were treated with different concentrations of the synthesized compounds and incubated for 72 h. After the treatment, 100 µl of MTT (0.5 mg/ml) was added and incubated at 37 °C for 4 h. Then MTT reagent was aspirated and formazan crystals formed were dissolved by the addition of 200 µL of DMSO for 20 min at 37 °C. The formazan product quantity was measured by using a spectrophotometric microtiter plate reader (Spectra Max, M4 Molecular devices, USA) at 570 nm wavelength(Nekkanti et al., 2017).
# [6] = tested on: HFL-1 normal lung fibroblasts; experiment: MTT cytotoxicity assay; settings: Homo sapiens, HFL1, 72 h, read-out: In vitro Inhibitory Concentration (IC50)
# Experimental: as §1, §3
# A549 [7] = experiment: MTT cytotoxicity assay
# Experimental: as §1, §3
# HT-29 [8] = experiment: MTT cytotoxicity assay; settings: Homo sapiens, HT-29 colorectal cancer, 72 h, read-out: In vitro Inhibitory Concentration (IC50)
# Experimental: as §1, §3
# A549 cells [9] = experiment: Cell cycle analysis (propidium iodide, flow cytometry)
# Experimental: In order to reveal whether arrest of cell cycle was mechanistically responsible for sensitizing lung cancer cells towards apoptosis, the flow cytometric analysis was performed to analyse the distribution of the cell population in various cell cycle phases (Mani et al., 2017). Here, A549 cancer cells were incubated with compound 4q at various concentrations ranging from 0.5 to 5 µM for 48 h. Untreated and treated cells were harvested, washed and fixed overnight in 70% ethanol in PBS at -20 °C. Fixed cells were pelleted and stained with cell cycle analysis reagent propidium iodide (50 μg/ml) with RNase A for 20 min at 37 °C in dark and about 10,000 events were acquired and analyzed on a flow cytometer (Kumar et al., 2018a).
# A549 cells [10] = experiment: Mitochondrial membrane potential (JC-1, flow cytometry); settings: 0.5-5 µM, 72 h
# Experimental: The cyanine dye JC-1 (5,5′,6,6′-tetrachloro-1,1′,3,3′-tetraethylbenzimidazolylcarbocyanine iodide) is a cell-penetrating dye that facilitates discrimination of energized and de energized mitochondria thus, high mitochondrial potential shifts its emission fluorescence from green to red (Vundru et al., 2013).This phenomenon was assessed by flow cytometry (FACS). A549 cells (1.5x10^6 cells/ml) were seeded in 12 well plates and allowed to adhere for overnight. Then the cells were incubated with compound 4q at 0.5, 1, 2.5 and 5 µM concentrations for 72 h. Cells were collected and washed with PBS and resuspended in solution of JC- 1 (1 µM) and incubated for 30 min in incubator at 37 °C. The cells were washed twice with PBS and cells were trypsinized, centrifuged and 10,000 events were analyzed by flow cytometer (BD FACSVerse™, USA).
# A549 cells [11] = experiment: Acridine orange/ethidium bromide (AO/EB) staining; settings: 0.5, 1, 2.5 and 5 µM, 72 h
# Experimental: A549 cells were seeded at a concentration of 1.2x10^5 cells/ml and treated with various concentrations of compound 4q and the plates were incubated for 72 h. Then, 100 µl from fluorescent dyes comprising both Acridine Orange (Helfrich et al., 2016) and Ethidium Bromide (Vundru et al., 2013) were added into each well in equal volumes (10 µg/ml) respectively (Nekkanti et al., 2017), then the cells were Immediately visualized under fluorescence microscope with excitation (488 nm) and emission (550 nm) at 200X magnification.
# A549 cells [12] = experiment: Morphological observation, phase contrast microscope; settings: 0.5, 1, 2.5 and 5 µM, 72 h
# Experimental: A549 cells were plated in 12 well culture plates with a cell density of 1.2x10^5 cells/ml and allowed to adhere for 24 h. Then the cells were incubated with 0.5, 1, 2.5 and 5 µM concentrations of compound 4q. After 72 h treatment, cells were monitored for the morphological changes and the images were captured under a phase contrast microscope (Nikon, Inc. Japan) at 200X magnification.
smiles,measurement,setting,value
"C1=CC2=NC3=C(CCCC3)C(c3cn(Cc4ccccc4)c4ccccc34)N2C=C1 (stereo not shown) [Compound 4i, 11-(1-benzyl-1H-indol-3-yl)-2,3,4, 11-tetrahydro-1H-pyrido [2,1-b] quinazoline]",GI50,DU-145 [1],9.64 ± 0.37 µM
same,GI50,[2],4.54 ± 0.59 µM
same,GI50,NCI-H460,3.24 ± 0.4 µM
same,GI50,A549 [3],2.7 ± 0.18 µM
same,GI50,HT-29 [4],5.98 ± 0.18 µM
same,GI50,HCT-15,6.27 ± 0.19 µM
same,IC50,DU-145 [5],9.15 ± 0.09 µM
same,IC50,[6],8.7 ± 0.36 µM
same,IC50,"A549 [7]; Homo sapiens, A549 adenocarcinoma (lung), MTT, 72 h, read-out: In vitro Inhibitory Concentration (IC50)",4.57 ± 0.25 µM
same,selectivity towards the cancer cells,A549 [7]; IC50 in HFL-1 normal fibroblasts versus lung cancer cells,approximately 2 fold
same,IC50,HT-29 [8],11.57 ± 0.04 µM
same,percentage of cells in G0/G1,"A549 cells [9]; 5 µM, control 63.53%",80.02%
same,cell cycle phase arrest,A549 cells [9]; 0.5 to 5 µM,arrests the A549 cancer cell lines at the G0/G1 phase; also recorded: G0/G1 arrest of the cell cycle
same,mitochondrial membrane potential (ΔΨm),A549 cells [10],significant collapse in the ΔΨm
same,apoptotic morphology by AO/EB staining,A549 cells [11],induced apoptosis in A549 lung cancer cells
same,morphological changes (phase contrast),A549 cells [12],shrinkage of cells and resulted in increased number of dead cells with increase in concentration
